Results from BindingDB's records for doi:10.1021/bi400413c (Stony Brook University, 2013).

biological target: T1, Enoyl-[acyl-carrier-protein] reductase [NADPH] FabI (Staphylococcus aureus (strain MRSA252), UniProt Q6GI75); test: Thermal Shift Assay; conditions: pH 7.5
T1 sequence (Q6GI75 whole entry): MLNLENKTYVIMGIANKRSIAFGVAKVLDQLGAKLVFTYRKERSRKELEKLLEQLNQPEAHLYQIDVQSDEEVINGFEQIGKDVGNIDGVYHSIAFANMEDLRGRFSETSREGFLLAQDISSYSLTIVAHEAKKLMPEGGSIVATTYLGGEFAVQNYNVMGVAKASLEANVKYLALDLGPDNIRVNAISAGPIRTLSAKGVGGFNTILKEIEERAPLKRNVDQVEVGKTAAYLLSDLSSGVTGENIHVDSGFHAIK
Method: ThermoFluor experiments were carried out in 96-well plates (Concord) using the CFX96 RealTime PCR Detection system and C1000 Thermal Cycler (BioRad).

Compound | Ki
CCCc1ccc(Oc2ccccc2)c(O)c1 [PT02] | 70 pM
N#Cc1ccccc1Oc1ccc(Br)cc1O [PT443] | 50 pM
Oc1cc(Cc2ccccc2)ccc1Oc1ccccc1 [PT89] | 100 pM
Cc1ccccc1Oc1ccc(CCc2ccccc2)cc1O [PT162] | 500 pM
CCCCCc1ccc(Oc2ccccc2)c(O)c1 [5-pentyl-2-phenoxylphenol] | 40 pM
CCCCCCCCc1ccc(Oc2ccccc2)c(O)c1 [5-Octyl-2-phenoxy-phenol] | 820 pM
Oc1cc(F)ccc1Oc1ccccc1 [PT55] | 1420 pM
Oc1cc(Br)ccc1Oc1ccccc1 [5-bromo-2-phenoxylphenol] | 60 pM
C=CCc1ccc(Oc2ccccc2)c(O)c1 [PT68] | 110 pM
Oc1ccccc1Oc1ccccc1 [2-phenoxylphenol] | 18900 pM
N#Cc1ccccc1Oc1ccc(F)cc1O [PT446] | 1010 pM
CCCCCCc1ccc(Oc2ccccc2)c(O)c1 [5-hexyl-2-phenoxyphenol] | 10 pM
Cc1ccc(Oc2ccccc2)c(O)c1 [PT53] | 380 pM
CCCCCCc1ccc(Oc2ccccc2N)c(O)c1 | 120 pM
